Laboratory results: PubChem BioAssay AID1117328 (Cheminformatics & Chemogenomics Research Group (CCRG), …, 2015)
Activity calls are given as the source filed them. No rule for the calls is given here.

Molecular target: Ribosomal protein S6 kinase beta-1 (Homo sapiens) (UniProt P23443)
Experiment: inhibition of human S6K1 enzyme activity – biochemical, LANCE Ultra TR-FRET (AID 1117328)
Conditions: LANCE Ultra TR-FRET kinase assay, p70S6K1; at 20 µM (top of the series)

Chain of Ribosomal protein S6 kinase beta-1 (Homo sapiens) (P23443 whole entry, looked up): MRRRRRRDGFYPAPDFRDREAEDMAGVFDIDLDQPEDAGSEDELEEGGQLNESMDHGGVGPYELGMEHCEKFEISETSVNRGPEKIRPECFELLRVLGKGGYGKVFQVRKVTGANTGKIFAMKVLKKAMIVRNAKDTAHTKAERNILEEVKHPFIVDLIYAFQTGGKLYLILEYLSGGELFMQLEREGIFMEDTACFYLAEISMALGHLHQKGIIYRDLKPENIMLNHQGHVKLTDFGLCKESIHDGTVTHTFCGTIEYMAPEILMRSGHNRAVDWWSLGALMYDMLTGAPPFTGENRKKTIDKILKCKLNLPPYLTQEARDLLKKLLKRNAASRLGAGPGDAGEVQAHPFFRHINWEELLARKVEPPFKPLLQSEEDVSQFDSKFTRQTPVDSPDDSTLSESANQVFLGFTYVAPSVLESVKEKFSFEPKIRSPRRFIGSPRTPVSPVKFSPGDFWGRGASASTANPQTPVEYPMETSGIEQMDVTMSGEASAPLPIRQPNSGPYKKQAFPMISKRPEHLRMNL

Row | SMILES | inhibition
1 | Cc1ccccc1C(=O)Nc1ccc(C(=O)N2CCCC(N(C)C)c3ccccc32)cc1 (stereo not drawn) | -7.07% (inactive)
2 | O=c1[nH]c(=O)n([C@H]2C[C@H](O)[C@@H](CO)O2)cc1C(F)(F)F | 5.58% (inactive)
3 | O=c1c(-c2ccccc2)c1-c1ccccc1 | 5.11% (inactive)
4 | Oc1c(Cl)cc(Cl)c2cccnc12 | 8.07% (inactive)
5 | Cc1ccc([N+](=O)[O-])[c]2c1[O][Hg]2 | 33.5% (inactive)
6 | CN1CC[C@H](c2c(O)cc(O)c3c(=O)cc(-c4ccccc4Cl)oc23)[C@H](O)C1 | 48.6% (inactive)
7 | O=C(CCl)c1ccc(Cl)cc1Cl | -8.03% (inactive)
8 | C[n+]1c2cc(N)ccc2cc2ccc(N)cc21 (tested in a mixture with another compound) | 65.3%
9 | CCCOc1ccc2nc(NC(=O)OC)[nH]c2c1 | -4.03% (inactive)
10 | CCC(C)n1ncn(-c2ccc(N3CCN(c4ccc(OC[C@H]5CO[C@](Cn6cncn6)(c6ccc(Cl)cc6Cl)O5)cc4)CC3)cc2)c1=O (stereo partly drawn) | -9.45% (inactive)
11 | Nc1nc(=S)c2[nH]cnc2[nH]1 | 3.34% (inactive)
12 | CC(=O)Oc1ccc(C2(c3ccc(OC(C)=O)cc3)Oc3ccccc3NC2=O)cc1 | -1.96% (inactive)
13 | COc1cccc2c1C(=O)c1c(O)c3c(c(O)c1C2=O)C[C@@](O)(C(C)=O)C[C@@H]3O[C@H]1C[C@H](N)[C@H](O)[C@H](C)O1 | -19.5% (inactive)
14 | Cc1ccc(Nc2nccc(N(C)c3ccc4c(C)n(C)nc4c3)n2)cc1S(N)(=O)=O | 5.82% (inactive)
15 | COc1ccc(-c2ccc3cc(C(=O)O)ccc3c2)cc1C12CC3CC(CC(C3)C1)C2 | 29% (inactive)
16 | COc1cc2c(c(OC)c1OC)-c1ccc(OC)c(=O)cc1[C@@H](NC(C)=O)CC2 | -2.55% (inactive)
17 | S=c1nc[nH]c2nc[nH]c12 | 22.2% (inactive)
18 | O=C(O)c1ccc(-n2nc(-c3ccccc3O)nc2-c2ccccc2O)cc1 | 0.21% (inactive)
19 | CN(C)c1ccc2nc3ccc(=[N+](C)C)cc-3sc2c1 | -350% (inactive)
20 | COC(=O)Nc1nc2ccc(S(=O)c3ccccc3)cc2[nH]1 (stereo not drawn) | -8.8% (inactive)
21 | COC(=O)[C@H]1[C@H]2C[C@@H]3c4[nH]c5cc(OC)ccc5c4CCN3C[C@H]2C[C@@H](OC(=O)/C=C/c2ccc(O)c(OC)c2)[C@@H]1OC | 7.92% (inactive)

Row | SMILES | inhibition
22 | COc1ccc(-c2nc3ccc(C4=NNC(=O)CC4C)cc3[nH]2)cc1 (stereo not drawn) | -32.5% (inactive)
23 | COc1cc2nc(N3CCN(C(=O)c4ccco4)CC3)nc(N)c2cc1OC | 28.5% (inactive)
24 | C=C(C)[C@H]1Cc2c(ccc3c2O[C@@H]2COc4cc(OC)c(OC)cc4[C@@H]2C3=O)O1 | -6.37% (inactive)
25 | NC(=NCCCCCCN=C(N)/N=C(\N)Nc1ccc(Cl)cc1)/N=C(\N)Nc1ccc(Cl)cc1 | 29.9% (inactive)
26 | COc1ccc2cc1Oc1ccc(cc1)C[C@H]1c3c(cc4c(c3Oc3cc5c(cc3OC)CCN(C)[C@@H]5C2)OCO4)CCN1C | -3.96% (inactive)
27 | COc1cc([C@@H]2c3cc4c(cc3[C@H](O)[C@H]3COC(=O)[C@H]23)OCO4)cc(OC)c1OC | 3.8% (inactive)
28 | CNC(=O)c1cc(Oc2ccc(NC(=O)Nc3ccc(Cl)c(C(F)(F)F)c3)cc2)ccn1 | 64.8%
29 | CC(=O)[C@]1(O)Cc2c(O)c3c(c(O)c2[C@@H](O[C@H]2C[C@H](N)[C@H](O)[C@H](C)O2)C1)C(=O)c1ccccc1C3=O | -128% (inactive)
30 | COC(=O)Nc1nc2ccc(Sc3ccccc3)cc2[nH]1 | -5.93% (inactive)
31 | CCc1nc(N)nc(N)c1-c1ccc(Cl)cc1 | 11.7% (inactive)
32 | CCCCCCCCCCCCCC[N+](C)(C)C | 3.96% (inactive)
33 | Cn1cnc([N+](=O)[O-])c1Sc1ncnc2nc[nH]c12 | -0.72% (inactive)
34 | COC(=O)c1nc(Cl)c(Cl)nc1N | 1.07% (inactive)
35 | CCCCC1C(=O)N(c2ccccc2)N(c2ccc(O)cc2)C1=O (stereo not drawn) | 0.82% (inactive)
36 | CCN(CC)CCNC(=O)c1c(C)[nH]c(/C=C2\C(=O)Nc3ccc(F)cc32)c1C | 91.7%
37 | O=c1[nH]c(=O)n([C@H]2C[C@H](O)[C@@H](CO)O2)cc1F | -6.04% (inactive)
38 | COC(=O)Nc1nc2ccc(C(=O)C3CC3)cc2[nH]1 | 12.7% (inactive)
39 | Cc1cc(O)c2ccccc2c1O | 39.1% (inactive)
40 | CCCN(CCC)C(=O)C(CCC(=O)OCCCN1CCN(CCOC(=O)Cc2c(C)n(C(=O)c3ccc(Cl)cc3)c3ccc(OC)cc23)CC1)NC(=O)c1ccccc1 (stereo not drawn) | -0.47% (inactive)
41 | Cc1ccc2nc(N)[nH]c(=O)c2c1Sc1ccncc1 | 50.1%
42 | O=C1c2c(O)ccc(O)c2C(=O)c2c(NCCNCCO)ccc(NCCNCCO)c21 | 21.1%

Row | SMILES | inhibition
43 | C[C@@]12C(=O)OC(=O)[C@]1(C)C1CCC2O1 | 6.38% (inactive)
44 | CNC(=O)c1ccccc1Sc1ccc2c(/C=C/c3ccccn3)n[nH]c2c1 | -17.9% (inactive)
45 | CC(C)(C)C(=O)OCOP(=O)(COCCn1cnc2c(N)ncnc21)OCOC(=O)C(C)(C)C | -0.94% (inactive)
46 | Cc1cc(=O)c2c(O)c3c(O)cc(=O)c4c3c3c(cc(O)c1c23)C(C)(C)C=4O | 12.5% (inactive)
47 | CCN(CC)CCOc1ccc(/C(=C(\Cl)c2ccccc2)c2ccccc2)cc1 | 7.41% (inactive)
48 | Cc1cc(C)c(/C=C2\C(=O)Nc3ccccc32)[nH]1 | 45.3% (inactive)
49 | Oc1c(Cl)cc(Cl)cc1Sc1cc(Cl)cc(Cl)c1O | 40.3% (inactive)
50 | CCCCc1oc2ccccc2c1C(=O)c1cc(I)c(OCCN(CC)CC)c(I)c1 | -4.08% (inactive)
51 | Oc1c(I)cc(I)c2cccnc12 | 1.27% (inactive)
52 | CCCCCCCCCCCCCCCCCCNC(=O)OC1CCN(C(=O)OC[C@H](COC(=O)N(Cc2cccc[n+]2CC)C(=O)c2ccccc2OC)OC)CC1 | -363% (inactive)
53 | CC(C)(C)C1CCC(CC2=C(O)c3ccccc3C(=O)C2=O)CC1 (stereo not drawn) | -2.09% (inactive)
54 | O=C(CCCCCCC(=O)Nc1ccccc1)NO | 4.26% (inactive)
55 | COc1cc(-c2ccc(=O)[nH]n2)ccc1OC(F)F | 3.71% (inactive)
56 | CCCSc1ccc2nc(NC(=O)OC)[nH]c2c1 | -2.9% (inactive)
57 | Cc1nc(Nc2ncc(C(=O)Nc3c(C)cccc3Cl)s2)cc(N2CCN(CCO)CC2)n1 | 5.32% (inactive)
58 | CC(C)C[C@H](NC(=O)[C@H](CCc1ccccc1)NC(=O)CN1CCOCC1)C(=O)N[C@@H](Cc1ccccc1)C(=O)N[C@@H](CC(C)C)C(=O)[C@@]1(C)CO1 | -1.98% (inactive)
59 | CC[C@]1(O)C[C@H]2CN(CCc3c([nH]c4ccccc34)[C@@](C(=O)OC)(c3cc4c(cc3OC)N(C=O)[C@H]3[C@@](O)(C(=O)OC)[C@H](OC(C)=O)[C@]5(CC)C=CCN6CC[C@]43[C@@H]65)C2)C1 | 5.42% (inactive)
60 | Cc1cc(C2CCCCC2)n(O)c(=O)c1 | -2.62% (inactive)
61 | CC[C@@H]([C@H](C)O)n1ncn(-c2ccc(N3CCN(c4ccc(OC[C@@H]5CO[C@@](Cn6cncn6)(c6ccc(F)cc6F)C5)cc4)CC3)cc2)c1=O | -23% (inactive)
62 | C=CC(=O)Nc1cc2c(Nc3ccc(F)c(Cl)c3)ncnc2cc1OCCCN1CCOCC1 | 10.8% (inactive)
63 | CCN(CC)CCNc1ccc(CO)c2sc3ccccc3c(=O)c12 | 37.2%

Row | SMILES | inhibition
64 | Cc1nc2ccc(CN(C)c3ccc(C(=O)N[C@@H](CCC(=O)O)C(=O)O)s3)cc2c(=O)[nH]1 | 26.6% (inactive)
65 | CCCCCCNC(=O)n1cc(F)c(=O)[nH]c1=O | -0.86% (inactive)
66 | CCCCCCCCCCCCCCCC[n+]1ccccc1 | -110% (inactive)
67 | COc1c(C)c2c(c(O)c1C/C=C(\C)CCC(=O)OCCN1CCOCC1)C(=O)OC2 | 1.51% (inactive)
68 | CC[C@]1(O)C[C@@H]2CN(CCc3c([nH]c4ccccc34)[C@@](C(=O)OC)(c3cc4c(cc3OC)N(C)[C@H]3[C@@](O)(C(=O)OC)[C@H](OC(C)=O)[C@]5(CC)C=CCN6CC[C@]43[C@@H]65)C2)C1 | -1.14% (inactive)
69 | Cc1nc(N)nc(N)c1-c1ccc(Cl)c(Cl)c1 | 5.16% (inactive)
70 | COC(=O)Nc1nc2ccc(C(=O)c3cccs3)cc2[nH]1 | -23.9% (inactive)
71 | COc1cc(NCc2ccc3nc(N)nc(N)c3c2C)cc(OC)c1OC | 38% (inactive)
72 | CC(C)C[C@H](NC(=O)[C@H](Cc1ccccc1)NC(=O)c1cnccn1)B(O)O | 6.59% (inactive)
73 | COCc1c(C(C)C)nc(C(C)C)c(/C=C/[C@@H](O)C[C@@H](O)CC(=O)O)c1-c1ccc(F)cc1 | 1.86% (inactive)
74 | [O-][n+]1ccccc1SSc1cccc[n+]1[O-] | -10.6% (inactive)
75 | CCC1=C[C@@H]2CN(C1)Cc1c([nH]c3ccccc13)[C@@](C(=O)OC)(c1cc3c(cc1OC)N(C)[C@H]1[C@@](O)(C(=O)OC)[C@H](OC(C)=O)[C@]4(CC)C=CCN5CC[C@]31[C@@H]54)C2 | -0.16% (inactive)
76 | O=C(NOCC1CC1)c1ccc(F)c(F)c1Nc1ccc(I)cc1Cl | -1.64% (inactive)
77 | COC(=O)Nc1nc2ccc(C(=O)c3ccccc3)cc2[nH]1 | -18.7% (inactive)
78 | O=C(Nc1ccc([N+](=O)[O-])cc1Cl)c1cc(Cl)ccc1O | 49.9% (inactive)
79 | O=[N+]([O-])c1ccc(O)c2ncccc12 | 37.6% (inactive)
80 | CC[C@@]1(O)C(=O)OCc2c1cc1n(c2=O)Cc2c-1nc1ccccc1c2/C=N/OC(C)(C)C | -2.02% (inactive)
81 | Cc1cc2c(C(C)C)c(O)c(O)c(C=O)c2c(O)c1-c1c(C)cc2c(C(C)C)c(O)c(O)c(C=O)c2c1O | -7.01% (inactive)
82 | Nc1ccc2cc3ccc(N)cc3nc2c1 | -285% (inactive)
83 | CSc1ccc2c(c1)C(N1CCN(C)CC1)Cc1ccccc1S2 (stereo not drawn) | 6.51% (inactive)
